# Measured values: PubChem BioAssay (NCI)
# Several values for one entry are separate records, joined by “and”; a condition that tells them apart may be missing. Equal values may be shown once.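 Compound exposure: 48 hours, 5 concentrations, 96-well plates. GI50: concentration for 50% inhibition of growth. TGI denotes the concentration required for complete inhibition of growth.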
# Assays:
# Experiment in all cases: NCI anticancer screen, dose series, 48 h
# [1] = system: CAKI-1 renal
# [2] = system: HCC-2998 colon
# [3] = system: CCRF-CEM leukemia
# [4] = system: MALME-3M melanoma
# [5] = system: TK-10 renal
# [6] = system: OVCAR-8 ovarian
# [7] = system: HCT-15 colon
# [8] = system: NCI-H23 lung
# [9] = system: M14 melanoma
# [10] = system: OVCAR-3 ovarian
# [11] = system: UACC-257 melanoma
# [12] = system: HT29 colon
# [13] = system: IGROV1 ovarian
# [14] = system: SNB-19 CNS
# [15] = system: SN12C renal
# [16] = system: MCF7 breast
# [17] = system: K-562 leukemia
Compound,TGI [1],TGI [2],TGI [3],TGI [4],TGI [5],TGI [6],TGI [7],TGI [8],TGI [9],TGI [10],TGI [11],TGI [12],TGI [13],TGI [14],TGI [15],TGI [16],TGI [17],GI50 [2],GI50 [3],GI50 [4]
O=C1NC(N2CCCC(CO)C2)=N/C1=C\c1ccccc1 (stereo unspecified),> 100 µM,> 100 µM,> 100 µM,> 100 µM,> 100 µM,> 100 µM,> 100 µM,> 100 µM,> 100 µM,> 100 µM,> 100 µM,> 100 µM,> 100 µM,> 100 µM,> 100 µM,> 100 µM,–,–,–,–
Cn1c2c(c3ccccc31)CCN=C2C1CCCOC1=O (stereo unspecified),> 100 µM,> 100 µM,–,> 100 µM,> 100 µM,> 100 µM,> 100 µM,–,> 100 µM,> 100 µM,> 100 µM,> 100 µM,> 100 µM,> 100 µM,> 100 µM,> 100 µM,–,–,–,–
O=C1c2c(O)cc(O)cc2C(C2OC(CO)C(O)C(O)C2O)c2cc(CO)cc(O)c21 (stereo unspecified),–,> 100 µM,–,> 100 µM,> 100 µM,> 100 µM,> 100 µM,> 100 µM,> 100 µM,> 100 µM,> 100 µM,> 100 µM,> 100 µM,> 100 µM,> 100 µM,> 100 µM,> 100 µM,–,–,–
CC(C)=NNc1snnc1C(N)=O,> 100 µM,> 100 µM,> 100 µM,> 100 µM,> 100 µM,> 100 µM,–,> 100 µM,> 100 µM,> 100 µM,> 100 µM,> 100 µM,> 100 µM,> 100 µM,> 100 µM,> 100 µM,> 100 µM,–,–,–
COc1ccc2c(c1)CC1COc3cc(OC)ccc3C1O2 (stereo unspecified),> 100 µM,> 100 µM,> 100 µM,> 100 µM,> 100 µM,> 100 µM,> 100 µM,> 100 µM,> 100 µM,> 100 µM,> 100 µM,> 100 µM,> 100 µM,–,> 100 µM,> 100 µM,–,–,–,–
C=C(Cl)/C(=C\Cl)CCC(Cl)C(C)C (stereo unspecified),> 100 µM,> 100 µM,> 100 µM,> 100 µM,> 100 µM,–,–,> 100 µM,> 100 µM,> 100 µM,> 100 µM,> 100 µM,> 100 µM,> 100 µM,> 100 µM,> 100 µM,> 100 µM,–,–,–
O=C1CNC(=O)/C(=C/c2c[nH]c3ccccc23)N1,> 100 µM,> 100 µM,–,> 100 µM,> 100 µM,> 100 µM,> 100 µM,> 100 µM,> 100 µM,> 100 µM,> 100 µM,> 100 µM,> 100 µM,> 100 µM,> 100 µM,> 100 µM,> 100 µM,–,–,–
Cc1ccc(/C=C2/N=C(N/N=C\C(O)C(O)C(O)CO)NC2=O)cc1 (stereo unspecified),> 100 µM,> 100 µM,> 100 µM,> 100 µM,> 100 µM,> 100 µM,> 100 µM,–,> 100 µM,> 100 µM,> 100 µM,> 100 µM,> 100 µM,> 100 µM,> 100 µM,> 100 µM,> 100 µM,> 100 µM and 30.9 µM,51.5 µM,> 100 µM and 42.1 µM
Cc1ccc(/C=C/C(=N/NC(=O)N/N=C(/C=C/c2ccc(C)cc2)C(C)C)C(C)C)cc1,> 10 µM,> 10 µM,> 10 µM,> 10 µM,> 10 µM,> 10 µM,> 10 µM,> 10 µM,> 10 µM,> 10 µM,> 10 µM,> 10 µM,–,> 10 µM,> 10 µM,> 10 µM,> 10 µM,–,–,–
COc1cc2cc(C(=O)N3CC(CCl)c4ccc([N+](C)(C)Cc5ccc([N+](=O)[O-])cc5)cc43)[nH]c2c(OC)c1OC (stereo unspecified),5.64 µM,2.95 µM,7.01 µM,7.42 µM,–,4.69 µM,31 µM,3.52 µM,40.5 µM,7.16 µM,–,5.83 µM,–,60 µM,31 µM,> 100 µM,5.61 µM,–,–,–
CCOc1ccccc1NC(=O)C(=O)C(/C(=N/N)C(=O)OC)c1nc2ccc([N+](=O)[O-])cc2[nH]c1=O (stereo unspecified),> 100 µM,> 100 µM,> 100 µM,> 100 µM,> 100 µM,> 100 µM,> 100 µM,–,> 100 µM,> 100 µM,> 100 µM,> 100 µM,> 100 µM,–,> 100 µM,> 100 µM,> 100 µM,–,–,–
